molecular target: E3 ubiquitin ligase CRBN (Homo sapiens, UniProt Q96SW2); assay: CRBN competitive binding assay (HTRF, thalidomide-XL665 displacement); details: not given
Description: CRBN binding activity test kit (CEREBLON BINDING KITS (PE, 64BD CRBN PEG)).
The detection is based on homogeneous time-resolved fluorescence (HTRF) technology.
This kit uses a europium-labeled GST antibody (GST Eu Cryptate Antibody) as the donor and XL665-labeled thalidomide (Thalidomide-Red reagent) as the receptor. The donor binds to the GST-tagged CRBN protein.
The donor and acceptor were each diluted 50-fold using the buffer (PROTAC binding buffer 1) in the kit. The CRBN protein was diluted 45-fold. The 8 mM compound solution disclosed in the present invention was diluted 10-fold using the diluent (1 X diluent) in the kit, and then the dilutd solution was subjected to 5-fold gradient dilution of the diluent, diluted 7 times sequentially. […] The mixture was incubated at room temperature for 3 hours. The ratio of the acceptor and donor emission signals for each individual well was calculated.
IC50 value was calculated based on compound concentration, Ratio, and coefficient of variation using GraphPad Prism.

Compound	IC50 [µM]
O=C1CCN(c2cc3c(cc2F)N2CCNC[C@@H]2CCO3)C(=O)N1 [Example B13]	4.45

same assay, conditions: competition with XL665-labeled thalidomide for GST-tagged CRBN protein, 3 hours at room temperature

Compound	IC50 [µM]
O=C1CCC(c2ccc3c(c2)OC2(CCNCC2)CC3)C(=O)N1 (centres unmarked) [Example A4]	0.55

same assay, conditions: competition with XL665-labeled thalidomide for GST-tagged CRBN protein, 3 hours at room temperature; read-out: IC50

Compound	IC50 [µM]
O=c1ccn(-c2ccc3c(c2)OC2(CCNCC2)CC3)c(=O)[nH]1 [Example A1, 1-(spiro[chroman-2,4'-piperidin]-7-yl)pyrimidine-2,4(1H,3H)-dione]	25.7
O=C1CCN(c2ccc3c(c2)OC2(CCNCC2)CC3)C(=O)N1 [Example A2, 1-(spiro[chroman-2,4'-piperidin]-7-yl)dihydropyrimidine-2,4(1H,3H)-dione]	1.53
O=C1CCC2(CC1)CCc1ccc(N3CCC(=O)NC3=O)cc1O2 [Example A3, 1-(4'-oxospiro[chroman-2,1'-cyclohexan]-7-yl)dihydropyrimidine-2,4(1H,3H)-dione]	0.59
O=C1CCN(c2ccc3c(c2)OC2(CC3)CNC2)C(=O)N1 [Example A5, 1-(spiro[azetidine-3,2'-chroman]-7'-yl)dihydropyrimidine-2,4(1H,3H)-dione]	3.06
O=C1CCN(c2ccc3c(c2)CCC2(CCNCC2)O3)C(=O)N1 [Example A6, 1-(spiro[chromate-2,4'-piperidin]-6-yl)dihydropyrimidine-2,4(1H,3H)-dione]	7.47
O=C1CCN(c2ccc3c(c2)OCC2(CCNCC2)C3)C(=O)N1 [Example A7, 1-(spiro[benzopyran-3,4'-piperidin]-7-yl)dihydropyrimidine-2,4(1H,3H)-dione]	12.7
O=C1CCN(c2ccc3c(c2)CC2(CCNCC2)CO3)C(=O)N1 [Example A8, 1-(spiro[benzopyran-3,4'-piperidin]-6-yl)dihydropyrimidine-2,4(1H,3H)-dione]	9.5
O=C1CCN(c2ccc3c(c2)OCC32CCNCC2)C(=O)N1 [Example A9, 1-(2H-spiro[benzofuran-3,4'-piperidin]-6-yl)dihydropyrimidine-2,4(1H,3H)-dione]	11.5
CN1CC2(CCNCC2)Oc2cc(N3CCC(=O)NC3=O)ccc21 [Example A10, 1-(4-methyl-3,4-dihydrospiro[benzo[b][1,4]oxazine-2,4'-piperidin]-7-yl)dihydropyrimidine-2,4(1H,3H)-dione]	0.91
O=C1CCN(c2ccc3c(c2)OC2(CCNCC2)C3)C(=O)N1 [Example A11, 1-(3H-spiro[benzofuran-2,4'-piperidin]-6-yl)dihydropyrimidine-2,4(1H,3H)-dione]	6.15
O=C1CCN(c2ccc3c(c2)CC2(CCNCC2)O3)C(=O)N1 [Example A12, 1-(3H-spiro[benzofuran-2,4'-piperidin]-5-yl)dihydropyrimidine-2,4(1H,3H)-dione]	13.3
O=C1CCN(c2cccc3c2OCC32CCNCC2)C(=O)N1 [Example A13, 1-(2H-spiro[benzofuran-3,4'-piperidin]-7-yl)dihydropyrimidine-2,4(1H,3H)-dione]	28.8
O=C1CCN(c2ccc3c(c2)CCC2(CNC2)O3)C(=O)N1 [Example A14, 1-(spiro(azetidine-3,2'-benzodihydropyran)-6'-yl)dihydropyrimidine-2,4(1H,3H)-dione]	8.36
O=C1CCN(c2ccc3c(c2)OCC2(CNC2)C3)C(=O)N1 [Example A15]	9.08
O=C1CCN(c2ccc3c(c2)CC2(CNC2)CO3)C(=O)N1 [Example A16, 1-(spiro[azetidine-3,3'-chroman]-6'-yl)dihydropyrimidine-2,4(1H,3H)-dione]	12.6
O=C1CCN(c2ccc3c(c2)OCC32CCNCC2(F)F)C(=O)N1 (centres unmarked) [Example A17, 1-(3',3'-difluoro-2H-spiro[benzofuran-3,4'-piperidin]-6-yl)dihydropyrimidine-2,4(1H,3H)-dione]	1.73

The remaining lines, values ahead:

IC50 [µM]	Compound
5.84	O=C1CCN(c2ccc3c(c2)OCCC2CNCCN32)C(=O)N1 (centres unmarked) [Example B1, 1-(2,3,4,4a,5,6-hexahydro-1H-benzo[b]pyrazino[1,2-d][1,4]oxazepin-9-yl)dihydropyrimidine-2,4(1H,3H)-dione]
6.11	O=C1CCN(c2ccc3c(c2)OCC[C@H]2CNCCN32)C(=O)N1 [Example B2, (S)-1-(2,3,4,4a,5,6-hexahydro-1H-benzo[b]pyrazino[1,2-d][1,4]oxazepin-9-yl)dihydropyrimidine-2,4(1H,3H)-dione]
5.67	O=C1CCN(c2ccc3c(c2)OCC[C@@H]2CNCCN32)C(=O)N1 [Example B3, (R)-1-(2,3,4,4a,5,6-hexahydro-1H-benzo[b]pyrazino[1,2-d][1,4]oxazepin-9-yl)dihydropyrimidine-2,4(1H,3H)-dione]
5.49	O=C1CCN(c2cnc3c(c2)OCC[C@H]2CNCCN32)C(=O)N1 [Example B4, (S)-1-(7,7a,8,9,10,11-hexahydro-6H-pyrazino[1,2-d]pyrido[3,2-b][1,4]oxazepin-3-yl)dihydropyrimidine-2,4(1H,3H)-dione]
10.2	O=C1CCN(c2cnc3c(c2)OCC[C@@H]2CNCCN32)C(=O)N1 [Example B5, (R)-1-(7,7a,8,9,10,11-hexahydro-6H-pyrazino[1,2-d]pyrido[3,2-b][1,4]oxirane-3-yl)dihydropyrimidine-2,4(1H,3H)-dione]
24.3	O=C1CCN(c2ccc3c(c2)NC(=O)CC2CNCCN32)C(=O)N1 (centres unmarked) [Example B6, 1-(6-oxo-1,2,3,4,4a,5,6,7-octahydrobenzo[b]pyrazino[1,2-d][1,4]diazepin-9-yl)dihydropyrimidine-2,4(1H,3H)-dione]
3.81	CN1CC[C@H]2CNCCN2c2ccc(N3CCC(=O)NC3=O)cc21 [Example B7, (S)-1-(7-methyl-1,2,3,4,4a,5,6,7-octahydrobenzo[b]pyrazino[1,2-d][1,4]diazepin-9-yl)dihydropyrimidine-2,4(1H,3H)-dione]
10	O=C1CCN(c2ccc3c(c2)COC[C@H]2CNCCN32)C(=O)N1 [Example B8, (R)-1-(1,2,3,4,4a,5-hexahydro-7H-benzo[e]pyrazino[2,1-c][1,4]oxazepin-9-yl)dihydropyrimidine-2,4(1H,3H)-dione]
8.59	O=C1CCN(c2ccc3c(c2)COC[C@@H]2CNCCN32)C(=O)N1 [Example B9, (S)-1-(1,2,3,4,4a,5-hexahydro-7H-benzo[e]pyrazino[2,1-c][1,4]oxazepin-9-yl)dihydropyrimidine-2,4(1H,3H)-dione]
3.34	O=C1CCN(c2ccc3c(c2)NC(=O)C2CNCCN32)C(=O)N1 (centres unmarked) [Example B10, 1-(5-oxo-2,3,4,4a,5,6-hexahydro-1H-pyrazino[1,2-a]quinoxalin-8-yl)dihydropyrimidine-2,4(1H,3H)-dione]
3.76	CN1CC2CNCCN2c2ccc(N3CCC(=O)NC3=O)cc21 (centres unmarked) [Example B11, 1-(6-methyl-2,3,4,4a,5,6-hexahydro-1H-pyrazino[1,2-a]quinoxalin-8-yl)dihydropyrimidine-2,4(1H,3H)-dione]
2.26	COc1cc2c(cc1N1CCC(=O)NC1=O)OCC[C@H]1CN(C(C)=O)CCN21 [Example B12]
5.4	COc1cc2c(cc1N1CCC(=O)NC1=O)OCC[C@H]1CNCCN21 [Example B14, (S)-1-(10-methoxy-2,3,4,4a,5,6-hexahydro-1H-benzo[b]pyrazino[1,2-d][1,4]oxazepin-9-yl)dihydropyrimidine-2,4(1H,3H)-dione]
3.7	O=C1CCN(c2cc3c(cc2Cl)N2CCNC[C@@H]2CCO3)C(=O)N1 [Example B15, (S)-1-(10-chloro-2,3,4,4a,5,6-hexahydro-1H-benzo[b]pyrazino[1,2-d][1,4]oxazepin-9-yl)dihydropyrimidine-2,4(1H,3H)-dione]

— patent EP4806892A1, “CEREBLON E3 UBIQUITIN LIGASE INHIBITOR” (GAN & LEE PHARMACEUTICALS CO., LTD., priority 2023, dated 2025)
